What was measured:
Format in all cases: in vitro ADME
Lipase from Hog Pancreas [1] = experiment: Stability of COMPOUND A with Lipase, Procedure C (premix of COMPOUND A and Lipase, then COMPOUND B); conditions: 0.55 mg/mL Lipase
Procedure: Procedure C (Premix of COMPOUND A and Lipase, Followed by Addition of COMPOUND B): Remark: Final COMPOUND B concentration: 3 μg/ml 220 μL of drug solution (stock A) and 220 μL of FeSSIF concentrate (Lecithin 37.5 mM and Sodium taurocholate 150 mM) were mixed. At time zero the reaction was started by addition of 1700 μl of Lipase in phosphate buffered saline solution (from stock C to obtain a final enzyme concentration of 0.55 mg/mL). The mixture was incubated at 37° C. and after 5 min, a 200 μL sample was taken for HPLC analysis. Then 60 μL of COMPOUND B solution (stock B) previously diluted 1:10 in phosphate buffered saline solution (corresponds to 100 μg/mL COMPOUND B) was added and as a function of time, samples of 200 μL were taken, diluted immediately with 600 μL of isopropanol and centrifuged for 5 min at 3000 rpm. The supernatant was analyzed by HPLC. 1700 μl of Lipase in phosphate buffered saline solution (from stock C to obtain a final enzyme concentration of 0.55 mg/mL) were mixed with 220 μL of FeSSIF concentrate and at time zero 220 μL of drug solution (stock A) was added. After 7 min of incubation, a 200 μL sample was taken, 60 μL of diluted COMPOUND B solution (stock B) was added and continued as described for the 1st experiment.

[2] = Stability of COMPOUND A in human intestinal fluids, Procedure E (suspension, excess separated by centrifugation), stimulated; conditions: HIF-stimulated
Procedure: Stimulated Intestinal Fluids: the fluids from 3 different subjects were collected after fasting overnight with a nasojejunal tube and pooled. For the stimulation, twenty minutes before the beginning of the collection, volunteers were provided with chewing-gums and were asked to chew over a 15 minutes period, maintaining the taste by replacing the sticks of gum approximately every 2 minutes.
Procedure E (COMPOUND A and COMPOUND B in Suspension, Excess Compound Separated by Centrifugation):
Stock J=COMPOUND B suspension (2 mg/mL)
100 μL of FeSSIF concentrate and 900 μL of pro-FeSSIF pH6.5 were added to 4 mg commercially available Orlistat formulation (Xenical®) containing 2 mg of lipase inhibitor 1-(3-hexyl-4-oxo-oxetan-2-yl)tridecan-2-yl 2-formyl-amino-4-methyl-pentanoate (COMPOUND B) in a vial and the formulation was dispersed by gently stirring during 15 min to obtain a fine homogenous suspension.
500 μL of freshly thawed intestinal fluids (fasted and stimulated state) were added to 1 mg of COMPOUND A in a 1 mL glass vial immediately followed by the addition of either 0, 10 or 20 μL of COMPOUND B suspension (stock J) corresponding to 0, 40 or 80 μg/mL of COMPOUND B. The amount of COMPOUND B was 0, 2% or 4% COMPOUND B relative to COMPOUND A. The mixture was incubated at 37° C. with gentle stirring. Samples of 90 μL were removed as function of time and centrifuged at 13′000 rpm (about 12′000×g) for 5 min. 50 μL of the supernatant was diluted with 150 μL isopropanol, centrifuged at 5′000 rpm for 5 min and the clear supernatant was analyzed by HPLC.

Lipase from Hog Pancreas [3] = experiment: Stability of COMPOUND A with Lipase, Procedure B' (as B, lower COMPOUND B concentrations); conditions: after 10 min incubation, 0.55 mg/mL (11 U/mL) Lipase
Procedure: (§1) 100 μL of drug solution (stock A) were mixed with 0, 12, 25 or 50 μL esterase inhibitor solution (stock B) and 100, 88, 75 or 50 μL of FeSSIF concentrate (Lecithin37.5 mM and Sodium taurocholate 150 mM) were added to make up 200 μL of a solution with COMPOUND B concentrations of 0, 12, 25 or 50 μg/mL. At time zero, 800 μL of Lipase in phosphate buffered saline solution (from stock C to obtain final enzyme concentrations of 0.55 mg/mL) were added. The reaction mixture was incubated at 37° C. and stopped after 10 minutes by diluting one part of the reaction mixture with 3 parts Isopropanol.
Procedure B′ (Premix of COMPOUND B and COMPOUND A, Followed by Addition of Lipase):
The tests were repeated as described under procedure B but with final COMPOUND B concentrations of 0, 3, 6, 12 μg/ml.

Lipase from Hog Pancreas [4] = experiment: Stability of COMPOUND A with Lipase, Procedure B (premix of COMPOUND B and COMPOUND A, then Lipase); conditions: 10 min, 0.55 mg/mL (11 U/mL) Lipase
Procedure: 240 mg Lipase (Lipase from Hog Pancreas, 20.6 U/mg Lipase, CAS No. 9001-62-1, Fluka, Art. No. 62300) were weighed into a vial and dissolved by stirring in 10 mL phosphate buffered saline solution pH 6.5. Any undissolved material was removed by centrifugation during 5 min at 5000 rpm. The supernatant was used for the experiments and diluted with PBS to obtain the Lipase at the final concentration of 0.55 mg/mL.
Procedure B (Premix of COMPOUND B and COMPOUND A, Followed by Addition of Lipase):
as §1

Structure (SMILES): CCC(CC)CC1(C(=O)Nc2ccccc2SC(=O)C(C)C)CCCCC1 [COMPOUND A, thioisobutyric acid S-(2-{[1-(2-ethyl-butyl)-cyclohexanecarbonyl]-amino}-phenyl)ester]
- Concentration of COMPOUND A (Lipase from Hog Pancreas [1]; +3 μg/mL COMPOUND B at T = 5 min, time 0 min): 45300 ng/mL
- Concentration of COMPOUND A (Lipase from Hog Pancreas [1]; +3 μg/mL COMPOUND B at T = 5 min, time 5 min): 41500 ng/mL
- Concentration of COMPOUND A (Lipase from Hog Pancreas [1]; +3 μg/mL COMPOUND B at T = 5 min, time 10 min): 39100 ng/mL
- Concentration of COMPOUND A (Lipase from Hog Pancreas [1]; +3 μg/mL COMPOUND B at T = 5 min, time 15 min): 39300 ng/mL
- Concentration of COMPOUND A (Lipase from Hog Pancreas [1]; +3 μg/mL COMPOUND B at T = 5 min, time 20 min): 39100 ng/mL
- Concentration of COMPOUND A (Lipase from Hog Pancreas [1]; +3 μg/mL COMPOUND B at T = 5 min, time 25 min): 39300 ng/mL
- Concentration of COMPOUND A (Lipase from Hog Pancreas [1]; +3 μg/mL COMPOUND B at T = 5 min, time 30 min): 39300 ng/mL
- Concentration of COMPOUND A (Lipase from Hog Pancreas [1]; +3 μg/mL COMPOUND B at T = 7 min, time 0 min): 45300 ng/mL
- Concentration of COMPOUND A (Lipase from Hog Pancreas [1]; +3 μg/mL COMPOUND B at T = 7 min, time 5 min): 40400 ng/mL
- Concentration of COMPOUND A (Lipase from Hog Pancreas [1]; +3 μg/mL COMPOUND B at T = 7 min, time 10 min): 38400 ng/mL
- Concentration of COMPOUND A (Lipase from Hog Pancreas [1]; +3 μg/mL COMPOUND B at T = 7 min, time 15 min): 38200 ng/mL
- Concentration of COMPOUND A (Lipase from Hog Pancreas [1]; +3 μg/mL COMPOUND B at T = 7 min, time 20 min): 37900 ng/mL
- Concentration of COMPOUND A (Lipase from Hog Pancreas [1]; +3 μg/mL COMPOUND B at T = 7 min, time 25 min): 37800 ng/mL
- Concentration of COMPOUND A (Lipase from Hog Pancreas [1]; +3 μg/mL COMPOUND B at T = 7 min, time 30 min): 37900 ng/mL
- Concentration of COMPOUND A ([2]; with 40 μg/mL of COMPOUND B, 15 min): 740 ng/mL
- Concentration of COMPOUND A ([2]; with 40 μg/mL of COMPOUND B, 30 min): 550 ng/mL
- Concentration of COMPOUND A ([2]; with 40 μg/mL of COMPOUND B, 1 h): 10530 ng/mL
- Concentration of COMPOUND A ([2]; with 40 μg/mL of COMPOUND B, 2 h): 32710 ng/mL
- Concentration of COMPOUND A ([2]; with 40 μg/mL of COMPOUND B, 4 h): 221310 ng/mL
- Concentration of COMPOUND A ([2]; with 80 μg/mL of COMPOUND B, 15 min): 1000 ng/mL
- Concentration of COMPOUND A ([2]; with 80 μg/mL of COMPOUND B, 30 min): 11800 ng/mL
- Concentration of COMPOUND A ([2]; with 80 μg/mL of COMPOUND B, 1 h): 64630 ng/mL
- Concentration of COMPOUND A ([2]; with 80 μg/mL of COMPOUND B, 2 h): 131640 ng/mL
- Concentration of COMPOUND A ([2]; with 80 μg/mL of COMPOUND B, 4 h): 171250 ng/mL
- Concentration of COMPOUND A ([2]; without COMPOUND B, 15 min): 3090 ng/mL
- Concentration of COMPOUND A ([2]; without COMPOUND B, 30 min): 520 ng/mL
- Concentration of COMPOUND A ([2]; without COMPOUND B, 1 h): 620 ng/mL
- Concentration of COMPOUND A ([2]; without COMPOUND B, 2 h): 820 ng/mL
- Concentration of COMPOUND A ([2]; without COMPOUND B, 4 h): 1310 ng/mL
- Concentration of COMPOUND A (Lipase from Hog Pancreas [3]; COMPOUND B 0 μg/ml): 14200 ng/mL
- Concentration of COMPOUND A (Lipase from Hog Pancreas [3]; COMPOUND B 3 μg/ml): 45900 ng/mL
- Concentration of COMPOUND A (Lipase from Hog Pancreas [3]; COMPOUND B 6 μg/ml): 46500 ng/mL
- Concentration of COMPOUND A (Lipase from Hog Pancreas [3]; COMPOUND B 12 μg/ml): 45700 ng/mL
- Concentration of COMPOUND A (Lipase from Hog Pancreas [4]; COMPOUND B 0 μg/mL): 23000 ng/mL
- Concentration of COMPOUND A (Lipase from Hog Pancreas [4]; COMPOUND B 12 μg/mL): 46400 ng/mL
- Concentration of COMPOUND A (Lipase from Hog Pancreas [4]; COMPOUND B 25 μg/mL): 46500 ng/mL
- Concentration of COMPOUND A (Lipase from Hog Pancreas [4]; COMPOUND B 50 μg/mL): 46100 ng/mL
